Consider 14 molecules from patent publication US9504669B2, “Spliceostatin analogs and methods for their preparation” (PFIZER INC., priority 2012, dated 2016).

Like-named read-outs stand apart in the source and are kept apart here.

The test system of experiment [1] is BT474 (breast cancer) cells. Nature of the experiment: In vitro cell assay (MTS cell viability), BT474. Type of experiment: cell-based. To be noted: Homo sapiens, BT-474; free compounds (natural products and synthetic analogs); cell viability 96 hours after treatment. The method, boiled down:
(§1)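 Cells seeded 24 h, then treated with antibody-drug conjugates or free drug, 3-fold serial dilutions at 10 concentrations in duplicate. Viability by MTS at 96 h as percent of untreated control; IC50 from four-parameter logistic fit.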

The subject of experiment [2] is MDA-MB-361-DYT2 (breast cancer) cells. Nature of the experiment: In vitro cell assay (MTS cell viability), MDA-MB-361-DYT2. To be noted: free compounds (natural products and synthetic analogs), cell viability 96 hours after treatment. The class given is cell-based. An outline of the steps: as §1
The test system of experiment [3] is MDA-MB-468 cells (target non-expressing). Nature of the experiment: In vitro cell assay (MTS cell viability), MDA-MB-468. Type of experiment: cell-based. To be noted: Homo sapiens. The method, then: Target expressing (BT474 (breast cancer), N87 (gastric cancer), HCC1954 (breast cancer), MDA-MB-361-DYT2 (breast cancer)) or non-expressing (MDA-MB-468) cells were seeded in 96-well cell culture plates for 24 hours before treatment. Cells were treated with 3-fold serially diluted antibody-drug conjugates or free compounds (i.e., no antibody conjugated to the drug) in duplicate at 10 concentrations. Cell viability was determined by CellTiter 96® AQueous One Solution Cell Proliferation MTS Assay (Promega, Madison Wis.) 96 hours after treatment. Relative cell viability was determined as percentage of untreated control. IC50 values were calculated using a four parameter logistic model #203 with XLfit v4.2 (IDBS, Guildford, Surry, UK). The potency ranged upward from 0.0002 nm. Similar procedures and techniques were employed.

In experiment [4] the test system is N87 (gastric cancer) cells. Nature of the experiment: In vitro cell assay (MTS cell viability), N87. Type of experiment: cell-based. To be noted: free compounds (natural products and synthetic analogs), cell viability 96 hours after treatment. The method, boiled down: as §1
In experiment [5] the test system is human cancer cell lines. The conditions noted are these: Journal of Antibiotics (1996), 49(12), 1204-1211; cited from earlier work.
Experiment [6] has as its system xenograft tumor models. The conditions noted are these: Journal of Antibiotics (1996), 49(12), 1204-1211; cited from earlier work.
Experiment [7] deals with spliceosome (SF3b, component of the subcomplex U2 snRNA). The conditions noted are these: Nature Chemical Biology (2007), 3(9), 576-583; Nature (2010), 468(7324), 664-668; cited from earlier work.
The mark [8] stands for this setting: MDA-MB-468, 96 h, read-out: MDA-MB-468 IC50 (nM).

For the molecule `CC(/C=C/[C@@H]1C[C@]2(CO2)C[C@@H](CC(=O)O)O1)=C\C[C@@H]1O[C@H](C)[C@H](NC(=O)/C=C\[C@H](C)O)C[C@@H]1C` [#B16, [(3S,5S,7S)-7-{(1E,3E)-5-[(2S,3S,5R,6R)-5-{[(2Z,4S)-4-hydroxypent-2-enoyl]amino}-3,6-dimethyltetrahydro-2H-pyran-2-yl]-3-methylpenta-1,3-dien-1-yl}-1,6-dioxaspiro[2.5]oct-5-yl]acetic acid], the 50% inhibitory concentration (IC50) was 76.1 nM in experiment [1], above 100 nM in experiment [2] (96 h), 36.8 nM in experiment [3] (setting [8]) and 16.8 nM in experiment [4] (96 h).
Turning to `CCCNC(=O)C[C@@H]1C[C@@]2(CO2)[C@H](O)[C@@H](/C=C/C(C)=C/C[C@@H]2O[C@H](C)[C@H](NC(=O)/C=C\[C@H](C)OC(C)=O)C[C@@H]2C)O1` [#B63, (2S,3Z)-5-({(2R,3R,5S,6S)-6-[(2E,4E)-5-{(3R,4R,5R,7S)-4-hydroxy-7-[2-oxo-2-(propylamino)ethyl]-1,6-dioxaspiro[2.5]oct-5-yl}-3-methylpenta-2,4-dien-1-yl]-2,5-dimethyltetrahydro-2H-pyran-3-yl}amino)-5-oxopent-3-en-2-yl acetate], the IC50 in experiment [1] stood at 0.651 nM; in experiment [2] (96 h) it was 0.293 nM; in experiment [3] (setting [8]) it was 0.348 nM; in experiment [4] (96 h) it was 1.1 nM.
Regarding `CC(=O)O[C@@H](C)/C=C\C(=O)N[C@@H]1C[C@H](C)[C@H](C/C=C(C)/C=C/[C@H]2O[C@H](CC(=O)N[C@H]3C[C@H](N)C3)C[C@@]3(CO3)[C@@H]2O)O[C@@H]1C` [#B73, (2S,3Z)-5-{[(2R,3R,5S,6S)-6-{(2E,4E)-5-[(3R,4R,5R,7S)-7-{2-[(trans-3-aminocyclobutyl)amino]-2-oxoethyl}-4-hydroxy-1,6-dioxaspiro[2.5]oct-5-yl]-3-methylpenta-2,4-dien-1-yl}-2,5-dimethyltetrahydro-2H-pyran-3-yl]amino}-5-oxopent-3-en-2-yl acetate], the IC50 in experiment [1] was determined as 296 nM; in experiment [2] (96 h) it was 443 nM; in experiment [3] (setting [8]) it was 276 nM; in experiment [4] (96 h), 174 nM.
For the molecule `CC(=O)O[C@@H](C)/C=C\C(=O)N[C@@H]1C[C@H](C)[C@H](C/C=C(C)/C=C/[C@H]2O[C@H](CC(=O)N[C@H]3CC[C@H](N)CC3)C[C@@]3(CO3)[C@@H]2O)O[C@@H]1C` [#B76, (2S,3Z)-5-{[(2R,3R,5S,6S)-6-{(2E,4E)-5-[(3R,4R,5R,7S)-7-{2-[(trans-4-aminocyclohexyl)amino]-2-oxoethyl}-4-hydroxy-1,6-dioxaspiro[2.5]oct-5-yl]-3-methylpenta-2,4-dien-1-yl}-2,5-dimethyltetrahydro-2H-pyran-3-yl]amino}-5-oxopent-3-en-2-yl acetate], the half-inhibitory concentration (IC50) is 341 nM in experiment [1], 885 nM in experiment [2] (96 h), 272 nM in experiment [3] (setting [8]) and 331 nM in experiment [4] (96 h).
The corresponding values for `CCCNC(=O)C(C)(C)NC(=O)C[C@@H]1C[C@@]2(CO2)[C@H](O)[C@@H](/C=C/C(C)=C/C[C@@H]2O[C@H](C)[C@H](NC(=O)/C=C\[C@H](C)OC(C)=O)C[C@@H]2C)O1` [#B81, (2S,3Z)-5-{[(2R,3R,5S,6S)-6-{(2E,4E)-5-[(3R,4R,5R,7S)-4-hydroxy-7-(2-{[2-methyl-1-oxo-1-(propylamino)propan-2-yl]amino}-2-oxoethyl)-1,6-dioxaspiro[2.5]oct-5-yl]-3-methylpenta-2,4-dien-1-yl}-2,5-dimethyltetrahydro-2H-pyran-3-yl]amino}-5-oxopent-3-en-2-yl acetate] are above 100 nM, above 100 nM, above 100 nM and 70.7 nM.
In the case of `COC(=O)C[C@@H]1C[C@@]2(CO2)C[C@@H](/C=C/C(C)=C/C[C@@H]2O[C@H](C)[C@H](NC(=O)/C=C\[C@H](C)O)C[C@@H]2C)O1` [#B148, methyl [(3S,5S,7S)-7-{(1E,3E)-5-[(2S,3S,5R,6R)-5-{[(2Z,4S)-4-hydroxypent-2-enoyl]amino}-3,6-dimethyltetrahydro-2H-pyran-2-yl]-3-methylpenta-1,3-dien-1-yl}-1,6-dioxaspiro[2.5]oct-5-yl]acetate], the IC50 in experiment [1] was 40.8 nM; in experiment [2] (96 h) it was above 100 nM; in experiment [3] (setting [8]), 64.4 nM; in experiment [4] (96 h), 47.4 nM.
Regarding `CCCC(=O)NC[C@@H]1C[C@@]2(CO2)C[C@@H](/C=C/C(C)=C/C[C@@H]2O[C@H](C)[C@H](NC(=O)/C=C\[C@H](C)OC(C)=O)C[C@@H]2C)O1` [#B173, (2S,3Z)-5-({(2R,3R,5S,6S)-6-[(2E,4E)-5-{(3R,5S,7S)-7-[(butanoylamino)methyl]-1,6-dioxaspiro[2.5]oct-5-yl}-3-methylpenta-2,4-dien-1-yl]-2,5-dimethyltetrahydro-2H-pyran-3-yl}amino)-5-oxopent-3-en-2-yl acetate], the IC50 in experiment [1] was 3.64 nM; in experiment [2] (96 h), 29.1 nM; in experiment [3] (setting [8]), 7.85 nM; in experiment [4] (96 h) it was 6.38 nM.
For `CC(=O)O[C@@H](C)/C=C\C(=O)N[C@@H]1C[C@H](C)[C@H](C/C=C(C)/C=C/[C@H]2O[C@H](CC(=O)O)C[C@@]3(CO3)[C@@H]2O)O[C@@H]1C` [#NP1, [(3R,5S,7R,8R)-7-{(1E,3E)-5-[(2S,3S,5R,6R)-5-{[(2Z,4S)-4-(acetyloxy)pent-2-enoyl]amino}-3,6-dimethyltetrahydro-2H-pyran-2-yl]-3-methylpenta-1,3-dien-1-yl}-8-hydroxy-1,6-dioxaspiro[2.5]oct-5-yl]acetic Acid], in that order: 145 nM, 160 nM, 142 nM and 61.6 nM.
As for `CC(=O)O[C@@H](C)/C=C\C(=O)N[C@@H]1C[C@H](C)[C@H](C/C=C(C)/C=C/[C@@H]2C[C@]3(CO3)C[C@@H](CC(=O)O)O2)O[C@@H]1C` [#NP2, [(3S,5S,7S)-7-{(1E,3E)-5-[(2S,3S,5R,6R)-5-{[(2Z,4S)-4-(acetyloxy)pent-2-enoyl]amino}-3,6-dimethyltetrahydro-2H-pyran-2-yl]-3-methylpenta-1,3-dien-1-yl}-1,6-dioxaspiro[2.5]oct-5-yl]acetic acid], the IC50 in experiment [1] was 5.12 nM; in experiment [2], 8.5 nM; in experiment [3] (MDA-MB-468, free compounds (natural products and synthetic analogs), cell viability 96 hours after treatment, read-out: MDA-MB-468 IC50) it was 3.39 nM; in experiment [4] it was 2.51 nM.
`CC(=O)O[C@@H](C)/C=C\C(=O)N[C@@H]1C[C@H](C)[C@H](C/C=C(C)/C=C/[C@@H]2CC(C)=CC(=O)O2)O[C@@H]1C` [#NP11, (2S,3Z)-5-{[(2R,3R,5S,6S)-2,5-dimethyl-6-{(2E,4E)-3-methyl-5-[(2S)-4-methyl-6-oxo-3,6-dihydro-2H-pyran-2-yl]penta-2,4-dien-1-yl}tetrahydro-2H-pyran-3-yl]amino}-5-oxopent-3-en-2-yl acetate]: the half-maximal inhibitory concentration (IC50) stood at 3.72 nM in experiment [1], 4.16 nM in experiment [2] (96 h), 1.55 nM in experiment [3] (setting [8]) and 3.67 nM in experiment [4] (96 h).
For the molecule `CC(=O)O[C@@H](C)/C=C\C(=O)N[C@@H]1C[C@H](C)[C@H](C/C=C(C)/C=C/[C@H]2O[C@](C)(O)C[C@@](O)(CCl)[C@@H]2O)O[C@@H]1C` [FR901463], the “inhibitory activities against human cancer cell lines” value (shortened to “inhibitory activities”) in experiment [5] is recorded as “potent inhibitory activities”. For the same molecule, the “efficacies in xenograft tumor models” value in experiment [6] is given as “efficacies in several xenograft tumor models”.
As for `CC(=O)O[C@@H](C)/C=C\C(=O)N[C@@H]1C[C@H](C)[C@H](C/C=C(C)/C=C/[C@H]2O[C@](C)(O)C[C@@]3(CO3)[C@@H]2O)O[C@@H]1C` [FR901464], the “inhibitory activities” value in experiment [5] was “potent inhibitory activities”. Further, the “efficacies in xenograft tumor models” value in experiment [6] was “efficacies in several xenograft tumor models”. Further, the “inhibition of the spliceosome” value in experiment [7] was “inhibit the spliceosome by interaction with SF3b”.
`CO[C@]1(C)C[C@@]2(CO2)[C@H](O)[C@@H](/C=C/C(C)=C/C[C@@H]2O[C@H](C)[C@H](NC(=O)/C=C\[C@H](C)OC(C)=O)C[C@@H]2C)O1` [spliceostatin A]: the “inhibition of the spliceosome” value in experiment [7] was “inhibit the spliceosome by interaction with SF3b”.
Turning to FR901465, in experiment [5], the “inhibitory activities” value is “potent inhibitory activities”. Further, the “efficacies in xenograft tumor models” value in experiment [6] is listed as “efficacies in several xenograft tumor models”.
